Data as given in the supplement of paper PMC10307832.

Assays:
Assay in all cases: relative viability (nuclei count vs DMSO), 5 days (fraction); higher = more cells survive
[1] = compound: C#Cc1cccc(Nc2ncnc3cc(OC)c(OCCCCCCC(=O)NO)cc23)c1 [CUDC-101] + Cc1nc(Nc2ncc(C(=O)Nc3c(C)cccc3Cl)s2)cc(N2CCN(CCO)CC2)n1 [Dasatinib] (partner 0.075 µM)
Summary of the method: (§1)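 After 5 days of treatment, lung cancer cells in 1536-well plates were fixed and stained in a single step (final 0.05% Triton X-100, 1% formaldehyde, 1 ug/ml Hoechst) and their nuclei counted on 4× images. Treatment had been applied by pin tool the day after seeding as one drug alone or as a fixed anchor-drug dose with five library-drug doses (not always all listed) in √10 steps. Relative viability is the nuclei count of treated wells divided by that of vehicle wells, and values are medians of duplicate plates.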

[2] = compound: COc1cc2/c(=N/c3ccc(Br)cc3F)nc[nH]c2cc1OCC1CCN(C)CC1 [Vandetanib] + O=C(CCCCCCC(=O)Nc1ccccc1)NO [Vorinostat] (partner 1 µM)
Summary of the method: as §1

[3] = compound: C#Cc1cccc(Nc2ncnc3cc(OC)c(OCCCCCCC(=O)NO)cc23)c1 [CUDC-101] + CC(=O)c1c(C)c2cnc(Nc3ccc(N4CCNCC4)cn3)nc2n(C2CCCC2)c1=O [Palbociclib] (partner 0.5 µM)
Summary of the method: as §1

[4] = compound: COc1cc(N2CCC(N3CCN(C)CC3)CC2)ccc1Nc1ncc(Cl)c(Nc2ccccc2S(=O)(=O)C(C)C)n1 [NVP-TAE684] + CS(=O)(=O)CCNCc1ccc(-c2ccc3ncnc(Nc4ccc(OCc5cccc(F)c5)c(Cl)c4)c3c2)o1 [Lapatinib] (partner 2 µM)
Summary of the method: as §1

| Cell Line | relative viability ([1]; first compound 0.01 µM) | relative viability ([1]; first compound 0.03162 µM) | relative viability ([1]; first compound 0.1 µM) | relative viability ([1]; first compound 0.3162 µM) | relative viability ([1]; first compound 1 µM) | relative viability ([2]; first compound 0.02 µM) | relative viability ([2]; first compound 0.06325 µM) | relative viability ([2]; first compound 0.2 µM) | relative viability ([2]; first compound 0.6325 µM) | relative viability ([2]; first compound 2 µM) | relative viability ([3]; first compound 0.01 µM) | relative viability ([3]; first compound 0.03162 µM) | relative viability ([3]; first compound 0.1 µM) | relative viability ([3]; first compound 0.3162 µM) | relative viability ([3]; first compound 1 µM) | relative viability ([4]; first compound 0.2 µM) | relative viability ([4]; first compound 0.6325 µM) | relative viability ([4]; first compound 2 µM) |
| --- | --- | --- | --- | --- | --- | --- | --- | --- | --- | --- | --- | --- | --- | --- | --- | --- | --- | --- |
| 201T | 0.578 | 0.563 | 0.579 | 0.591 | 0.511 | 0.886 | 0.876 | 0.959 | 0.904 | 0.957 | 0.332 | 0.38 | 0.347 | 0.344 | 0.353 | 1.09 | 1.05 | 0.928 |
| A549 |  |  |  |  |  |  |  |  |  |  |  |  |  |  |  | 1.21 |  | 0.192 |
| A-427 | 0.745 | 0.659 | 0.649 | 0.608 | 0.389 | 0.809 | 0.85 | 0.903 | 0.842 | 0.911 | 0.562 | 0.538 | 0.501 | 0.496 | 0.487 | 1.12 |  | 0.922 |
| ABC-1 | 0.772 | 0.728 | 0.543 | 0.532 | 0.194 | 1.05 | 1.11 | 1.02 | 0.96 | 0.773 | 0.647 | 0.682 | 0.864 | 0.587 | 0.454 | 1.06 | 1.33 | 0.976 |
| BEN | 0.426 | 0.301 | 0.346 | 0.311 | 0.264 | 0.6 | 0.56 | 0.613 | 0.552 | 0.569 | 0.432 | 0.477 | 0.522 | 0.513 | 0.479 | 0.579 | 0.552 | 0.62 |
| CAL-12T | 0.72 | 0.372 | 0.346 | 0.514 | 0.318 | 0.724 | 0.549 | 0.67 | 0.759 | 0.415 | 0.81 | 0.448 | 0.333 | 0.412 | 0.34 | 0.666 | 0.471 | 0.305 |
| COR-L23 | 0.578 | 0.485 | 0.477 | 0.499 | 0.177 | 0.427 | 0.406 | 0.463 | 0.451 | 0.516 | 0.275 | 0.332 | 0.283 | 0.253 | 0.128 | 0.661 | 0.898 | 0.538 |
| COR-L 105 | 0.337 | 0.382 | 0.277 | 0.418 | 0.122 | 0.922 | 0.807 | 0.829 | 0.822 | 0.537 | 0.383 | 0.404 | 0.408 | 0.427 | 0.294 | 0.376 | 0.319 | 0.235 |
